{"source": "paper PMC5723347", "about": "“Silencing of D-Lactate Dehydrogenase Impedes Glyoxalase System and Leads to Methylglyoxal Accumulation and Growth Inhibition in Rice” (Frontiers in Plant Science, 2017)", "tested_on": "T1, OsD-LDH-FL", "T1 construct": "full-length 561 residues including mitochondrial targeting peptide, N-terminal GST tag kept (pGEX-6P-1), 87 kDa fusion, expressed in E. coli BL21 (DE3)", "test": "spectrophotometric cytochrome c reduction at […] nm, Hanes-Woolf", "type": "biochemical, Oryza sativa subsp. indica", "conditions": "200 μM cytochrome c as electron acceptor, pH 8.35, 30°C, 50 mM potassium phosphate", "note": "Like-named read-outs stand apart in the source and are kept apart here."}
{"smiles": "C[C@@H](O)C(=O)O", "note": "[D-lactate]", "values": [{"measurement": "Km", "setting": "read-out: D-LACTATE / KM", "value": "41.4 ± 2.93", "unit": "µM"}]}
{"smiles": "CC[C@@H](O)C(=O)O", "note": "[D-2-hydroxybutyrate]", "values": [{"measurement": "Km", "setting": "read-out: D-2-HB / KM", "value": "11 ± 0.34", "unit": "µM"}]}
